Reference: patent publication US4965280A, “Antifungal carbinols” (E. I. Du Pont de Nemours and Company, priority 1989, dated 1990)

Tests used:
VELVETLEAF = assay: Test D; type: in vivo, Abutilon theophrasti
Description: (§1) The Corn and Sorghum Herbicide Test included the following species in both the preemergence and postemergence evaluations:
(§2) Postemergence plantings were grown in Sassafras sandy loam soil. Corn and soybeans were grown in separate 25 cm diameter containers. Sorghum and the seven grass weed species were grown in two 18 cm diameter containers, 4 species per container. The seven broadleaf weed species were also grown in two 18 cm diameter containers, 4 species in one container, 3 species in the second container. One additional planting of corn in an 18 cm diameter container was made. The soil surface of this additional container of corn was covered with the absorbent, perlite, before spray treatment so that test chemicals would enter the plant only via the foliage. The plants were grown 10-21 days, dependent upon the species and then sprayed postemergence with the test chemicals dissolved in a nonpytotoxic solvent.
(§3) Preemergence plantings were grown in fertilized Tama silt loam soil. These plantings are identical to those described in the postemergence section, with the exception of the corn planting having perlite covering the soil surface. These plantings were made the day of or the day before spraying the test chemicals dissolved in a nonphytotoxic solvent.
(§4) Treated plants and controls were maintained in the greenhouse for 2 to 4 weeks. Visual planting response ratings were made on a percentage scale of 0 to 100 in comparison with a control where 0=no injury, and 100=death.

IVY MORNINGLORY = assay: Test D; type: in vivo, Ipomoea hederacea
PERLITE CORN = assay: Test D, soil covered with perlite; type: in vivo, Zea mays
Description: as §1, §2, §4

BARNYARDGRASS = assay: Test D; type: in vivo, Echinochloa crus-galli
Description: as §1, §2, §3, §4

JIMSONWEED = assay: Test D; type: in vivo, Datura stramonium
GIANT FOXTAIL = assay: Test D; type: in vivo, Setaria faberii
REDROOT PIGWEED = assay: Test D; type: in vivo, Amaranthus retroflexus
G4646 CORN = assay: Test D Corn and Sorghum Herbicide Test; type: in vivo, Zea mays
G522 SORGHUM = assay: Test D; type: in vivo, Sorghum bicolor
LARGE CRABGRASS = assay: Test D; type: in vivo, Digitaria sanguinalis
JOHNSONGRASS = assay: Test D; type: in vivo, Sorghum halepense

C=C(c1ccccc1Cl)C(O)(Cn1cncn1)c1ccc(F)cc1F (centres unmarked) [Example 35]
plant response (VELVETLEAF; POSTEMERGENCE 0250 GM/HA): 60%
plant response (VELVETLEAF; POSTEMERGENCE 0500 GM/HA): 90%
plant response (VELVETLEAF; PREEMERGENCE 0064 GM/HA): 60%
plant response (VELVETLEAF; PREEMERGENCE 0125 GM/HA): 70%
plant response (VELVETLEAF; PREEMERGENCE 0250 GM/HA): 100%
plant response (VELVETLEAF; PREEMERGENCE 0500 GM/HA): 100%
plant response (IVY MORNINGLORY; POSTEMERGENCE 0250 GM/HA): 20%
plant response (IVY MORNINGLORY; POSTEMERGENCE 0500 GM/HA): 30%
plant response (IVY MORNINGLORY; PREEMERGENCE 0064 GM/HA): 0%
plant response (IVY MORNINGLORY; PREEMERGENCE 0125 GM/HA): 0%
plant response (IVY MORNINGLORY; PREEMERGENCE 0250 GM/HA): 0%
plant response (IVY MORNINGLORY; PREEMERGENCE 0500 GM/HA): 30%
plant response (PERLITE CORN; POSTEMERGENCE 0250 GM/HA): 0%
plant response (PERLITE CORN; POSTEMERGENCE 0500 GM/HA): 0%
plant response (BARNYARDGRASS; POSTEMERGENCE 0250 GM/HA): 40%
plant response (BARNYARDGRASS; POSTEMERGENCE 0500 GM/HA): 60%
plant response (BARNYARDGRASS; PREEMERGENCE 0064 GM/HA): 0%
plant response (BARNYARDGRASS; PREEMERGENCE 0125 GM/HA): 60%
plant response (BARNYARDGRASS; PREEMERGENCE 0250 GM/HA): 40%
plant response (BARNYARDGRASS; PREEMERGENCE 0500 GM/HA): 100%
plant response (JIMSONWEED; POSTEMERGENCE 0250 GM/HA): 20%
plant response (JIMSONWEED; POSTEMERGENCE 0500 GM/HA): 20%
plant response (JIMSONWEED; PREEMERGENCE 0064 GM/HA): 0%
plant response (JIMSONWEED; PREEMERGENCE 0125 GM/HA): 0%
plant response (JIMSONWEED; PREEMERGENCE 0250 GM/HA): 80%
plant response (JIMSONWEED; PREEMERGENCE 0500 GM/HA): 30%
plant response (GIANT FOXTAIL; POSTEMERGENCE 0250 GM/HA): 0%
plant response (GIANT FOXTAIL; POSTEMERGENCE 0500 GM/HA): 60%
plant response (GIANT FOXTAIL; PREEMERGENCE 0064 GM/HA): 0%
plant response (GIANT FOXTAIL; PREEMERGENCE 0125 GM/HA): 50%
plant response (GIANT FOXTAIL; PREEMERGENCE 0250 GM/HA): 80%
plant response (GIANT FOXTAIL; PREEMERGENCE 0500 GM/HA): 100%
plant response (REDROOT PIGWEED; POSTEMERGENCE 0250 GM/HA): 30%
plant response (REDROOT PIGWEED; POSTEMERGENCE 0500 GM/HA): 70%
plant response (REDROOT PIGWEED; PREEMERGENCE 0064 GM/HA): 0%
plant response (REDROOT PIGWEED; PREEMERGENCE 0125 GM/HA): 0%
plant response (REDROOT PIGWEED; PREEMERGENCE 0250 GM/HA): 50%
plant response (REDROOT PIGWEED; PREEMERGENCE 0500 GM/HA): 98%
plant response (G4646 CORN; POSTEMERGENCE 0250 GM/HA): 0%
plant response (G4646 CORN; POSTEMERGENCE 0500 GM/HA): 0%
plant response (G4646 CORN; PREEMERGENCE 0064 GM/HA): 0%
plant response (G4646 CORN; PREEMERGENCE 0125 GM/HA): 0%
plant response (G4646 CORN; PREEMERGENCE 0250 GM/HA): 0%
plant response (G4646 CORN; PREEMERGENCE 0500 GM/HA): 0%
plant response (G522 SORGHUM; POSTEMERGENCE 0250 GM/HA): 0%
plant response (G522 SORGHUM; POSTEMERGENCE 0500 GM/HA): 50%
plant response (G522 SORGHUM; PREEMERGENCE 0064 GM/HA): 0%
plant response (G522 SORGHUM; PREEMERGENCE 0125 GM/HA): 0%
plant response (G522 SORGHUM; PREEMERGENCE 0250 GM/HA): 0%
plant response (G522 SORGHUM; PREEMERGENCE 0500 GM/HA): 0%
plant response (LARGE CRABGRASS; POSTEMERGENCE 0250 GM/HA): 30%
plant response (LARGE CRABGRASS; POSTEMERGENCE 0500 GM/HA): 30%
plant response (LARGE CRABGRASS; PREEMERGENCE 0064 GM/HA): 50%
plant response (LARGE CRABGRASS; PREEMERGENCE 0125 GM/HA): 70%
plant response (LARGE CRABGRASS; PREEMERGENCE 0250 GM/HA): 95%
plant response (LARGE CRABGRASS; PREEMERGENCE 0500 GM/HA): 100%
plant response (JOHNSONGRASS; POSTEMERGENCE 0250 GM/HA): 0%
plant response (JOHNSONGRASS; POSTEMERGENCE 0500 GM/HA): 50%
plant response (JOHNSONGRASS; PREEMERGENCE 0064 GM/HA): 30%
plant response (JOHNSONGRASS; PREEMERGENCE 0125 GM/HA): 30%
plant response (JOHNSONGRASS; PREEMERGENCE 0250 GM/HA): 100%
plant response (JOHNSONGRASS; PREEMERGENCE 0500 GM/HA): 100%
